Assay results as given in article PMC7241010, “In Vivo and In Vitro Study of N-Methyltaurine on Pharmacokinetics and Antimuscle Atrophic Effects in Mice” (ACS Omega, 2020).
Where two headings read alike, the source gives them in different places. Values belong to the compound of their own block, whether it stands above or below them.

Experiments:
ICR mice = assay: Dexamethasone-induced muscle atrophy model in ICR mice; assay type: in vivo, mouse
Procedure: Next, to investigate the effect of NMT on skeletal muscle atrophy, a mouse atrophy model induced by Dex was employed[41] (Figure 5). Mice were administered with Dex daily (i.p., 10 mg/kg body weight) and maintained on drinking water either with no addition or containing 0.5% NMT.
To induce muscle atrophy in ICR mice, Dex was suspended in saline (10 mg/mL), and the mixture was intraperitoneally (i.p.) injected at 10 mg/kg body weight once a day for 10 days.[41] Body weight was monitored daily. Then, mice were euthanized by cervical dislocation, and muscles were isolated from the mice. The isolated tissue was immediately froze in liquid nitrogen and stored at −80 °C.

Atrogin-1 and MuRF1 = assay: Gene expression of Atrogin-1 and MuRF1 in C2C12 myotubes (qRT-PCR); assay type: cell-based, mouse; conditions: C2C12 myotubes treated with Dex and NMT
Procedure: We tested whether these ubiquitin ligases are involved in the suppressive effect of NMT against muscle atrophy in the C2C12 myotube.
Total RNA was isolated from C2C12 cells using Sepasol Super G (Nacalai Tesque, Kyoto, Japan), and cDNA was generated by using ReverTra Ace (Toyobo, Osaka, Japan). Quantitative RT-PCR analysis was performed using Applied Biosystems StepOne (Applied Biosystems) with THUNDERBIRD SYBR qPCR Mix (Toyobo). The primers used are as follows: Atrogin-1 forward: 5′-TTCAG CAGCC TGAAC TACGA-3′, reverse: 5′-AGTAT CCATG GCGCT CCTTC-3′. MuRF1 forward: 5′-GCGTG ACCAC AGAGG GTAAA-3′, reverse: 5′-CTCTG CGTCC AGAGC GTG-3′. GAPDH forward: 5′-GCCGG TGCTG AGTAT GTCGT-3′, reverse: 5′-CCCTT TTGGC TCCAC CCTT-3′.

C2C12 myotubes [1] = assay: Dex-induced myotube atrophy in C2C12 cells (myotube diameter); assay type: cell-based, mouse; conditions: 24 h
Procedure: To explore the beneficial effect of NMT against skeletal muscle atrophy in mice, we investigated its protective effect using cultures of C2C12 myotubes.
C2C12 mouse myoblasts were purchased from ATCC (American Type Culture Collection) and were cultured in DMEM containing 10% fetal bovine serum. Cell lines were not tested for mycoplasma contamination in the present study. To induce differentiation of the myotubes, cells were cultured in DMEM containing 2% fetal bovine serum for 1 week. After differentiation, cells were treated with Dex (final concentration, 50 μM) with or without NMT.[28] Myotube diameter was measured from microscopic images taken after treatment with Dex.

[2] = Tissue distribution of NMT after 0.5% NMT in drinking water; assay type: in vivo, mouse; conditions: mice
Procedure: To evaluate the tissue distribution of NMT in mice after administration in the drinking water, the concentration of NMT was measured in tissues and serum 4 days after the original administration (Figure 3). The tissue concentration of NMT was analyzed by HPLC. NMT was widely distributed in the tissues of mice, including in brain, liver, kidney, heart, and muscles. The tissue concentration of NMT was much higher than that of serum concentration, with one exception, the skin (Figure 3).
To measure NMT in the serum and tissues after long-term treatment with NMT, NMT dissolved in the drinking water (0.5%) was given to mice for 4 days. After that, mice were anesthetized by medetomidine (0.3 mg/kg body weight; FUJIFILM Wako Pure Chemical), butorphanol (5 mg/kg body weight; FUJIFILM Wako Pure Chemical), and midazolam (4 mg/kg body weight; FUJIFILM Wako Pure Chemical), and then blood and tissues were collected. Tissues were kept in −80 °C until use.
(§1) Plasma samples were mixed with an equal volume of 5% sulfosalicylic acid (SSA) containing the internal standard chemical sarcosine (0.1 mM). Tissues in 10 volumes of 5% SSA containing an internal control were homogenized using a Polytron homogenizer. Samples were centrifuged, and the supernatant was filtered with 0.45 μm filters and then neutralized with NaHCO3.
(§2) NMT was measured by HPLC after derivatization with 9-fluorenylmethyloxycarbonyl chloride (FMOC-Cl) according to a previous report with brief modification.[49] First, equal volumes of o-phthalaldehyde (OPA) reagent (5 mM OPA, 23 mM 3-mercaptopropionic acid, 10 mM boric acid, pH 10.4) was added to acid-extracted samples and incubated at room temperature for 1 min for the derivatization of the primary amine. Then, 1 volume of FMOC-Cl reagent (3 mM FMOC-Cl in acetone) was added to the mixture and incubated for additional 1 min for the derivatization of residual secondary amine. After dilution with HPLC mobile phase buffer A (10 mM potassium phosphate, pH 7.3), samples were subjected to HPLC analysis performed on an UltiMate 3000 rapid separation binary system (Thermo Fisher, USA) or Prominence HPLC system (Shimadzu, Japan). Samples were injected into a ZORBAX Eclipse Plus C18 column (Agilent, USA). Mobile phases A (10 mM potassium phosphate, pH 7.3) and B (acetonitrile) were used. The column oven temperature was set at 40 °C. The flow rate of the mobile phase was 1.5 mL/min. The gradient of the mobile phase was increased from 2 to 88% buffer B (from 0.84 to 11.9 min) and was kept at 100% buffer B for 3 min followed by 2% for 15 min. N-Methyltaurine derivatized by FMOC-Cl was monitored by a fluorescence detector (excitation: 266 nm, emission: 305 nm) and diode array detector (Shimadzu).

[3] = system: taurine uptake in brain slices; conditions: cited from earlier work
[4] = Pharmacokinetics and oral bioavailability of NMT in mice (plasma NMT by HPLC); assay type: in vivo, mouse; conditions: for AUC(0-t): read-out: AUC0–180min (converted)
Procedure: To study the pharmacokinetic parameters and the oral bioavailability of NMT, we tested the serum concentration of NMT after p.o. or i.v. injection of NMT (Figure 2). Biological fluid was sampled following the injection of NMT. […] Oral bioavailability is defined as the fraction of the dose that reaches the systemic circulation. Blood samples were collected at 10 to 180 min after NMT administration and then examined by HPLC.
All experimental procedures were approved by the Institutional Animal Care and Use Committee of the Fukui Prefectural University. Three-month-old male ICR mice were used for this study. […] Blood samples were collected from the facial vein (for i.v. injection) or the tail vein (for p.o. injection) at 10, 20, 30, 60, 120, and 180 min after NMT administration.
as §1, §2
Pharmacokinetic parameters were calculated by using R (Package “PK”, ver. 1.3-4).

[5] = rats; cited from earlier work
taurine transport system = conditions: human intestine cells, cited from earlier work
C2C12 myotubes [6] = conditions: in vitro exposure to dexamethasone; cited from earlier work
[7] = Dex i.p. 10 mg/kg daily for 10 days, 0.5% NMT in drinking water
[8] = drinking water containing 0.5% NMT for 4 days, average

SMILES: CNCCS(=O)(=O)O [NMT, N-Methyltaurine]
effect on Dex-induced loss in wet weight of gastrocnemius muscle (ICR mice; [7]): attenuated Dex-induced loss in wet weight
effect on Dex-induced loss in wet weight of tibial anterior muscle (ICR mice; [7]): attenuated Dex-induced loss in wet weight
effect on Dex-induced body weight loss (ICR mice; Dex i.p. 10 mg/kg daily, 0.5% NMT in drinking water): attenuated body weight loss
effect on Dex-induced Atrogin-1 and MuRF1 gene expression (Atrogin-1 and MuRF1): did not act by downregulating those genes
effect on Dex-induced decline in myotube width (C2C12 myotubes [1]; Dex 50 μM + NMT 20 mM): prevented the decline in myotube width
Kp at 4 days ([2]; ICR, mouse, 0.5 % in drinking water, oral NMT, various tissues, skin is an exception, read-out: tissue NMT relative to serum concentration of NMT): 10 to 100
Tissue NMT, brain [2, 8]: 0.84 nmol/g wet
Tissue NMT, heart [2, 8]: 3.5 nmol/g wet
Tissue NMT, kidney [2, 8]: 0.39 nmol/g wet
Tissue NMT, liver [2, 8]: 0.50 nmol/g wet
Tissue NMT, muscle [2, 8]: 0.17 nmol/g wet
Tissue NMT, serum [2, 8]: 0.033 nmol/g wet
Tissue NMT, skin [2, 8]: 0.019 nmol/g wet
effect on taurine uptake [3]: inhibits taurine uptake
AUC(0-t) ([4]; male, ICR, mouse, iv, i.v. 0.5 mg/kg BW, plasma): 900 ng·h/mL
bioavailability ([4]; male, ICR, mouse, plasma, oral, 0.5 mg/kg, p.o. 0.5 mg/kg BW vs i.v. 0.5 mg/kg BW, read-out: bioavailability): 96%
bioavailability ([4]; male, ICR, mouse, plasma, oral, 5 mg/kg BW, p.o. 5 mg/kg BW vs i.v. 0.5 mg/kg BW, read-out: bioavailability): 58%
AUC(0-t) ([4]; male, ICR, mouse, po, p.o. 0.5 mg/kg BW, plasma): 865 ng·h/mL
AUC(0-t) ([4]; male, ICR, mouse, po, p.o. 5 mg/kg BW, plasma): 5250 ng·h/mL
bioavailability ([4]; p.o. 0.5 mg/kg BW vs i.v. 0.5 mg/kg BW, 0.5 mg/kg): 96.1%

SMILES: NCCS(=O)(=O)O [taurine]
oral bioavailability [5]: ~100%
concentration at which transport activity is almost saturated (taurine transport system): ~50 µM
Km (taurine transport system; read-out: Km of taurine transport): 4.8 µM
effect on Dex-induced muscle atrophy in vitro (C2C12 myotubes [6]): attenuates muscle atrophy

effect on myotube width (C2C12 myotubes [1]; Dex 50 μM): reduced the width of the myotube
SMILES: C[C@@H]1C[C@H]2[C@@H]3CCC4=CC(=O)C=C[C@]4(C)[C@@]3(F)[C@@H](O)C[C@]2(C)[C@@]1(O)C(=O)CO [Dex, dexamethasone, reference compound]
effect on body weight (ICR mice; Dex i.p. 10 mg/kg body weight daily): caused a continuous loss of body weight
